Experimental data as given in ChEMBL document CHEMBL1148078, “Isolation of Spongosine and 2'-Deoxyspongosine from a Western Australian Sponge of the Order Hadromerida (Tethyidae)” (J Nat Prod, 1994).
Calls of active or inactive are those of the source.

How the values were obtained:
Format in all cases: functional, organism-based
[1] = system: Saccharomyces pastorianus; assay: Antimicrobial activity against Saccharomyces carlsbergensis at 200 ug/disk by disk diffusion assay
Candida albicans = assay: Antimicrobial activity against Candida albicans at 200 ug/disk by disk diffusion assay
Staphylococcus aureus = assay: Antimicrobial activity against Staphylococcus aureus at 200 ug/disk by disk diffusion assay
Escherichia coli = assay: Antimicrobial activity against Escherichia coli at 200 ug/disk by disk diffusion assay
Pseudomonas aeruginosa = assay: Antimicrobial activity against Pseudomonas aeruginosa at 200 ug/disk by disk diffusion assay

Measured: Activity

COc1nc(N)c2ncn([C@H]3C[C@H](O)[C@@H](CO)O3)c2n1
inactive: all assays above

COc1nc(N)c2ncn([C@@H]3O[C@H](CO)[C@@H](O)[C@H]3O)c2n1
inactive: all assays above
